The test system of one series is HBV in 2.2.15 cells. Put plainly: 2.2.15 cells: viral product in cell lysates quantified via quantitative real time PCR. Format: cell-based, hepatitis B virus (HBV). The conditions noted are these: Hepatitis B virus, 120 h, day 5 post treatment, 50% reduction of viral product vs no drug controls, readout (qPCR, HBsAg or HBeAg) not specified for the column. The method, boiled down:
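2.2.15 cells (35,000/well, DMEM/F12, 10% FBS, G418) were treated with 5-fold serial compound dilutions, 0.5% DMSO final. After 5 days, lysates were quantified by qPCR, or supernatant HBsAg/HBeAg by ELISA; EC50 is the concentration giving 50% reduction versus no-drug controls.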

The nature of series [1]: Compound induced cellular toxicity in HepG2 cells, ATPlite 1Step. The format is cell-based. The conditions noted are these: human, three days exposure, 50% reduction of total ATP vs no drug controls. On the procedure:
At day 3, post seeding cells are treated with ATPlite 1Step according to the manufacturer's instructions.
For orientation: In ATP-based viability assays light output follows the ATP content of the culture.

SMILES strings stand for the structures.

With `COc1ccc(-c2nn3c(c2-c2ccc(OC)cc2)-c2cc(=O)c(C(=O)O)cn2[C@H](C(C)(C)C)C3)cc1` [Example 98, (R)-6-(tert-butyl)-1,2-bis(4-methoxyphenyl)-10-oxo-5,6-dihydro-10H-pyrazolo[1,5-a]pyrido[2,1-c]pyrazine-9-carboxylic acid], the EC50 in the series on HBV in 2.2.15 cells is under 0.1 µM. This compound showed a CC50 at 3 days in series [1] of over 25 µM.
Taken in the same sequence, the figures for `CC(C)(C)[C@@H]1Cn2ncc(-c3ccccc3OC(F)(F)F)c2-c2cc(=O)c(C(=O)O)cn21` [Example 115, (R)-6-(tert-butyl)-10-oxo-1-(2-(trifluoromethoxy)phenyl)-5,6-dihydro-10H-pyrazolo[1,5-a]pyrido[2,1-c]pyrazine-9-carboxylic acid] were under 0.1 µM and over 25 µM.
Taken in the same sequence, the figures for `CC(C)(C)[C@@H]1Cn2nc(-c3cc(F)c(F)cc3O)cc2-c2cc(=O)c(C(=O)O)cn21` [Example 66, (R)-6-(tert-butyl)-2-(4,5-difluoro-2-hydroxyphenyl)-10-oxo-5,6-dihydro-10H-pyrazolo[1,5-a]pyrido[2,2-c]pyrazine-12-carboxylic acid] were under 0.1 µM and over 25 µM.
The matching figures for `CC(C)[C@@H]1Cn2nc(C3CC3)c(-c3cccs3)c2-c2cc(=O)c(C(=O)O)cn21` [Example 131, (R)-2-cyclopropyl-6-isopropyl-10-oxo-1-(thiophen-2-yl)-5,6-dihydro-10H-pyrazolo[1,5-a]pyrido[2,1-c]pyrazine-9-carboxylic acid]: under 0.1 µM and over 25 µM.
Turning to `CC(C)(C)[C@@H]1Cn2ncc(-c3ccco3)c2-c2cc(=O)c(C(=O)O)cn21` [Example 108, (R)-6-(tert-butyl)-1-(furan-2-yl)-10-oxo-5,6-dihydro-10H-pyrazolo[1,5-a]pyrido[2,1-c]pyrazine-9-carboxylic acid], in the series with HBV in 2.2.15 cells, the concentration giving a half-maximal response (EC50) was under 0.1 µM. This compound came in with a CC50 at 3 days in series [1] of 10 to 25 µM.
The matching figures for `CC(C)(C)[C@@H]1Cn2nc(-c3ccc(F)cc3)cc2-c2cc(=O)c(C(=O)O)cn21` [Example 1, (R)-6-(tert-butyl)-2-(4-fluorophenyl)-10-oxo-5,6-dihydro-10H-pyrazolo[1,5-a]pyrido[2,2-c]pyrazine-12-carboxylic acid]: under 0.1 µM and over 25 µM.
Taken in the same sequence, the figures for `CC(C)(C)[C@@H]1Cn2nc(-c3ccc4c(c3F)OCO4)cc2-c2cc(=O)c(C(=O)O)cn21` [Example 55, (R)-6-(tert-butyl)-2-(4-fluorobenzo[d][1,3]dioxol-5-yl)-10-oxo-5,6-dihydro-10H-pyrazolo[1,5-a]pyrido[2,2-c]pyrazine-12-carboxylic acid] were under 0.1 µM and over 25 µM.
Taken in the same sequence, the figures for `CC(C)(C)[C@@H]1Cn2nc(C3CC3)c(-c3ccccc3F)c2-c2cc(=O)c(C(=O)O)cn21` [Example 148, (R)-6-(tert-butyl)-2-cyclopropyl-1-(2-fluorophenyl)-10-oxo-5,6-dihydro-10H-pyrazolo[1,5-a]pyrido[2,1-c]pyrazine-9-carboxylic acid] were under 0.1 µM and over 25 µM.
In the series on HBV in 2.2.15 cells, `CC(C)(C)[C@@H]1Cn2ncc(-c3cccc4c3OC(F)(F)O4)c2-c2cc(=O)c(C(=O)O)cn21` [Example 111, (R)-6-(tert-butyl)-1-(2,2-difluorobenzo[d][1,3]dioxol-4-yl)-10-oxo-5,6-dihydro-10H-pyrazolo[1,5-a]pyrido[2,1-c]pyrazine-9-carboxylic acid] showed an EC50 of under 0.1 µM. Besides, the CC50 at 3 days in series [1] is over 25 µM.
Taken in the same sequence, the figures for `CC(C)(C)[C@@H]1Cn2ncc(-c3ccoc3)c2-c2cc(=O)c(C(=O)O)cn21` [Example 102, (R)-6-(tert-butyl)-1-(furan-3-yl)-10-oxo-5,6-dihydro-10H-pyrazolo[1,5-a]pyrido[2,1-c]pyrazine-9-carboxylic acid] were under 0.1 µM and over 25 µM.
Taken in the same sequence, the figures for `COc1c(-c2cc3n(n2)C[C@@H](C(C)(C)C)n2cc(C(=O)O)c(=O)cc2-3)ccc(F)c1F` [Example 69, (R)-6-(tert-butyl)-2-(3,4-difluoro-2-methoxyphenyl)-10-oxo-5,6-dihydro-10H-pyrazolo[1,5-a]pyrido[2,2-c]pyrazine-12-carboxylic acid] were under 0.1 µM and over 25 µM.
The matching figures for `CC(C)(C)[C@@H]1Cn2nc(C3CC3)c(-c3ccoc3)c2-c2cc(=O)c(C(=O)O)cn21` [Example 152, (R)-6-(tert-butyl)-2-cyclopropyl-1-(furan-3-yl)-10-oxo-5,6-dihydro-10H-pyrazolo[1,5-a]pyrido[2,1-c]pyrazine-9-carboxylic acid]: under 0.1 µM and over 25 µM.
The compound `CC(C)[C@@H]1Cn2nc(-c3cccc(F)c3)c(-c3cccc(F)c3)c2-c2c(F)c(=O)c(C(=O)O)cn21` [Example 188, (R)-11-fluoro-1,2-bis(3-fluorophenyl)-6-isopropyl-10-oxo-5,6-dihydro-10H-pyrazolo[1,5-a]pyrido[2,1-c]pyrazine-9-carboxylic acid] displayed an EC50 in the series with HBV in 2.2.15 cells of under 0.1 µM. The CC50 at 3 days in series [1] is over 25 µM.
As to `CC(C)(C)[C@@H]1Cn2nc(C3CC3)c(-c3ccc(F)cc3)c2-c2cc(=O)c(C(=O)O)cn21` [Example 146, (R)-6-(tert-butyl)-2-cyclopropyl-1-(4-fluorophenyl)-10-oxo-5,6-dihydro-10H-pyrazolo[1,5-a]pyrido[2,1-c]pyrazine-9-carboxylic acid], the concentration giving a half-maximal response (EC50) in the series with HBV in 2.2.15 cells is under 0.1 µM. For the same compound, in series [1], the CC50 at 3 days was over 25 µM.
The matching figures for `CC(C)(C)[C@@H]1Cn2nc(-c3ccc(F)c(F)c3)cc2-c2cc(=O)c(C(=O)O)cn21` [Example 60, (R)-6-(tert-butyl)-2-(3,4-difluorophenyl)-10-oxo-5,6-dihydro-10H-pyrazolo[1,5-a]pyrido[2,2-c]pyrazine-12-carboxylic acid]: under 0.1 µM and over 25 µM.
Taken in the same sequence, the figures for `CC(C)(C)[C@@H]1Cn2nnc(-c3ccc(F)cc3)c2-c2cc(=O)c(C(=O)O)cn21` [Example 208, (R)-6-(tert-butyl)-1-(4-fluorophenyl)-10-oxo-5,6-dihydro-10H-pyrido[1,2-a][1,2,3]triazolo[5,1-c]pyrazine-9-carboxylic acid] were under 0.1 µM and over 25 µM.
Regarding `COc1ccc(-c2cnn3c2-c2cc(=O)c(C(=O)O)cn2[C@H](C(C)(C)C)C3)cc1` [Example 114, (R)-6-(tert-butyl)-1-(4-methoxyphenyl)-10-oxo-5,6-dihydro-10H-pyrazolo[1,5-a]pyrido[2,1-c]pyrazine-9-carboxylic acid], the EC50 in the series with HBV in 2.2.15 cells is under 0.1 µM. The compound also showed a CC50 at 3 days in series [1] of over 25 µM.
As for `COc1ccc(OCc2ccccc2)cc1-c1cc2n(n1)C[C@@H](C(C)(C)C)n1cc(C(=O)O)c(=O)cc1-2` [Example 36, (R)-2-(5-(benzyloxy)-2-methoxyphenyl)-6-(tert-butyl)-10-oxo-5,6-dihydro-10H-pyrazolo[1,5-a]pyrido[2,2-c]pyrazine-12-carboxylic acid], the 50% effective concentration (EC50) in the series with HBV in 2.2.15 cells was under 0.1 µM. Moreover, the CC50 at 3 days in series [1] was over 25 µM.
Regarding `CC(C)[C@@H]1Cn2nc(C3CC3)c(-c3ccoc3)c2-c2cc(=O)c(C(=O)O)cn21` [Example 132, (R)-2-cyclopropyl-1-(furan-3-yl)-6-isopropyl-10-oxo-5,6-dihydro-10H-pyrazolo[1,5-a]pyrido[2,1-c]pyrazine-9-carboxylic acid], in the series on HBV in 2.2.15 cells, the EC50 is under 0.1 µM. In series [1], this compound had a CC50 at 3 days of over 25 µM.
Taken in the same sequence, the figures for `CCOc1ccc(F)cc1-c1cc2n(n1)C[C@@H](C(C)(C)C)n1cc(C(=O)O)c(=O)cc1-2` [Example 73, (R)-6-(tert-butyl)-2-(2-ethoxy-5-fluorophenyl)-10-oxo-5,6-dihydro-10H-pyrazolo[1,5-a]pyrido[2,2-c]pyrazine-12-carboxylic acid] were under 0.1 µM and over 25 µM.
The matching figures for `CC(C)(C)[C@@H]1Cn2nc(C3CC3)c(-c3ccc(F)c(F)c3)c2-c2cc(=O)c(C(=O)O)cn21` [Example 151, (R)-6-(tert-butyl)-2-cyclopropyl-1-(3,4-difluorophenyl)-10-oxo-5,6-dihydro-10H-pyrazolo[1,5-a]pyrido[2,1-c]pyrazine-9-carboxylic acid]: under 0.1 µM and over 25 µM.
Taken in the same sequence, the figures for `CC(C)(C)[C@@H]1Cn2nc(-c3cccc4c3OCC4)cc2-c2cc(=O)c(C(=O)O)cn21` [Example 59, (R)-6-(tert-butyl)-2-(2,3-dihydrobenzofuran-7-yl)-10-oxo-5,6-dihydro-10H-pyrazolo[1,5-a]pyrido[2,2-c]pyrazine-12-carboxylic acid] were under 0.1 µM and over 25 µM.
Turning to `CC(C)(C)[C@@H]1Cn2nc(-c3ccoc3)cc2-c2cc(=O)c(C(=O)O)cn21` [Example 4, (R)-6-(tert-butyl)-2-(furan-3-yl)-10-oxo-5,6-dihydro-10H-pyrazolo[1,5-a]pyrido[2,2-c]pyrazine-12-carboxylic acid], the EC50 with HBV in 2.2.15 cells is 0.2 to 1 µM. The compound also gave a CC50 at 3 days in series [1] of over 25 µM.
The matching figures for `CC(C)(C)[C@@H]1Cn2nc(-c3cccc(OC(F)(F)F)c3)cc2-c2cc(=O)c(C(=O)O)cn21` [Example 17, (R)-6-(tert-butyl)-10-oxo-2-(3-(trifluoromethoxy)phenyl)-5,6-dihydro-10H-pyrazolo[1,5-a]pyrido[2,2-c]pyrazine-12-carboxylic acid]: under 0.1 µM and over 25 µM.
On to `CCCCOc1ccccc1-c1cc2n(n1)C[C@@H](C(C)(C)C)n1cc(C(=O)O)c(=O)cc1-2` [Example 78, (R)-2-(2-butoxyphenyl)-6-(tert-butyl)-10-oxo-5,6-dihydro-10H-pyrazolo[1,5-a]pyrido[2,2-c]pyrazine-12-carboxylic acid], for which the EC50 in the series on HBV in 2.2.15 cells was under 0.1 µM. Moreover, the CC50 at 3 days in series [1] was over 25 µM.

What is called EC50 is the concentration giving half of the maximal effect. The low end stands for an effect from little substance, the high end for a need for much substance. In general, CC50 refers to the concentration that lowers cell viability or growth by half.

(Values after patent US12264159B2, “Functionalized heterocycles as antiviral agents” (Enanta Pharmaceuticals, Inc., priority 2018, dated 2025).)
